“Also recorded” adds a separate entry of the source.
Key:
[1] = Stability at gastric pH and with digestive enzymes; assay type: in vitro ADME; settings: pH 2.0; enzymes 100 U/ml, 12 h, 37° C.; 0.2 mg/ml
Experimental: FIG. 1: UAS03 is a potent anti-inflammatory structural analogue of UroA and induces tight junction proteins. (A) Chemical structures of UroA, UAS03. UroA/UAS03 stability was examined in the presence of gastric pH 2.0 and digestive enzymes. UroA and UAS03 (0.2 mg/ml) were incubated with digestive enzymes (esterases and proteases, 100 U/ml) for 12 h at 37° C. and compound levels were quantified. (B) BMDMs were stimulated with LPS (50 ng/ml) without or with UroA (blue line)/UAS03 (purple line) (0.1, 1, 10, 25 and 50 μM) for 6 hours. IL-6 and TNF-α levels in supernatants were measured. (C) C57BL/6 mice (n=3-4) were pretreated with UroA (20 mg/kg) and UAS03 (20 mg/kg). After 4 hours, LPS (2 mg/kg) was injected intraperitoneally. Post 4 h of LPS administration, serum levels of IL-6 and TNF-α was measured. […] (G) The fold changes in mRNA levels of claudin 4 (Cldn4), occludin (Ocln) and Zona occludens 1 (ZO1) in HT29 cells were determined by RT PCR method. (H) UroA/UAS03 induced protein expression of Cldn4, Ocln and ZO1 in HT29 cells were determined by immunoblots and quantified by Image J software. […] The green intensity (n=15-20 cell membrane regions) was measured. […] The protein lysates were prepared from colon scrapes and subjected to immunoblots and detected the expression of the (J) Nrf2, HO1, Cldn4 and (K) AhR using appropriate antibodies as described in methods. […]

AhR^−/− mice = experiment: Acute ALD model in AhR^−/− mice; assay type: in vivo, mouse; settings: 20 mg/kg at 2, 14 and 26 h
Experimental: FIG. 19: UroA treatment failed in AhR^−/− mice to protect against binge EtOH-induced ALD. C547BL/6 and AhR^−/− mice (n=4/group) were oral gavaged with alcohol (2.5 g/kg) at 0, 12 and 24 h. Mice were treated with Veh (0.25% CMC) or UroA (20 mg/kg) at 2, 14 and 26 h. Mice were euthanized at 32 h. The Fecal albumin was measured using standard ELISA. Serum endotoxin, TNF-α, ALT as well as liver ALT and TG levels using ELISA methods. Error bars, ±SEM. Statistics were performed using 2way ANOVA multiple comparisons. * p<0.05, ** p<0.01, *** p<0.001.
AhR has a role for UroA mediated protection in ALD model: To address the role of AhR expression for UroA mediated activities, we performed acute ALD models in C57BL/6J mice and AhR^−/− mice. In this experiment, mice (WT, AhR^−/− mice (n=4/group)) were treated with half the dose of EtOH (2.5 g/kg) at 0, 12 and 24 h followed by oral treatment Veh (0.25% CMC) or UroA (20 mg/kg) at 2, 14 and 26 h.

[2] = target: T1, breast cancer resistance protein (BCRP) (Homo sapiens, UniProt Q9UNQ0); experiment: BCRP drug efflux activity; assay type: cell-based; settings: colon cancer cell lines
T1 construct: endogenous in cells
T1 sequence (Q9UNQ0 whole entry): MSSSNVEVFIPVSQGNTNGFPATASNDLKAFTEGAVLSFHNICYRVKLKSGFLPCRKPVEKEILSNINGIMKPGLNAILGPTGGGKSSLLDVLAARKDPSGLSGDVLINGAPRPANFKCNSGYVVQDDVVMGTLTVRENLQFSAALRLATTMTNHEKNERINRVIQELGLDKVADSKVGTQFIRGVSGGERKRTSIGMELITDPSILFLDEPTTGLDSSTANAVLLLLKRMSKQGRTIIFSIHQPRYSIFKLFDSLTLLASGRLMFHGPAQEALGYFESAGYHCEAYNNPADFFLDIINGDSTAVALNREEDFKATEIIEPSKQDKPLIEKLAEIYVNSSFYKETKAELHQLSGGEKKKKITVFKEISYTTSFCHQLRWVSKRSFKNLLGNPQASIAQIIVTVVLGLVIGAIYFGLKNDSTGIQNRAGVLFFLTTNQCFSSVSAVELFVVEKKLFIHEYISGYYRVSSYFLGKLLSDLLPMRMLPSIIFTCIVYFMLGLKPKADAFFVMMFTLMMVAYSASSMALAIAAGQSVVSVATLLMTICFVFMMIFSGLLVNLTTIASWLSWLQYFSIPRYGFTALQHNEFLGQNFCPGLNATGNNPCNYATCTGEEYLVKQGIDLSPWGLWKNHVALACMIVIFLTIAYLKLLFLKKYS
Source text: Therefore, blocking its activity and/or downregulating the expression of BCRP, P-gp could reverse the effect and sensitize the cancer cells.

| Compound | stability at gastric pH and in the presence of gastric enzymes (esterases and proteases) [1] | TG levels in AhR^−/− mice (AhR^−/− mice) | EtOH-induced gut leakage, serum endotoxins, TNF-α, ALT, liver ALT in AhR^−/− mice (AhR^−/− mice; EtOH 2.5 g/kg) | BCRP drug efflux activity [2] |
| --- | --- | --- | --- | --- |
| Oc1ccc2c(c1)COc1cc(O)ccc1-2 [UAS03, 6H-benzo[c]chromene-3,8-diol] | stable | – | – | – |
| O=c1oc2cc(O)ccc2c2ccc(O)cc12 [UroA, 3,8-dihydroxy-6H-dibenzo[b,d]pyran-6-one] | – | down regulated TG levels | did not appear to rescue | decreased drug efflux activities; also recorded: reduced the BCRP activity |
